One experiment deals with c-RAF/B-RAF heterodimer (Homo sapiens, UniProt P04049+P15056). Put plainly: c-RAF/B-RAF co-immunoprecipitation after EGF stimulation. It is filed as cell-based. Particulars: EGF-stimulated HeLa and A431 cells.
Experiment [1] has as its system c-RAF^Ser338 phosphorylation. Nature of the experiment: EGF-induced c-RAF^Ser338 phosphorylation in HCT116 cells. It is filed as cell-based, human. Particulars: serum-starved HCT116, EGF 5 min.
Experiment [2] has as its system GTP-RAS in HeLa and A431 cell lines. Put plainly: Active RAS pull-down after EGF stimulation, wild-type RAS cells. Particulars: serum-starved HeLa and A431 cells, 2 μM. It is filed as cell-based.
The target in experiment [3] is kinase domain (KD) of c-RAF (AA 306–648) (Homo sapiens, UniProt P04049). Put plainly: Differential scanning fluorimetry. It is filed as binding. Particulars: DSF. A general note: In DSF a fluorescence change marks the thermal transition of the protein.
For experiment [4], the target named is GST-RBD (AA 1–149) of c-RAF (Homo sapiens, UniProt P04049). Nature of the experiment: Differential scanning fluorimetry. It counts as binding. Particulars: DSF.
Experiment [5] relates to c-RAF kinase activity in HeLa and A431 cells. Nature of the experiment: RAF kinase activity of c-RAF immunoprecipitates from EGF-stimulated cells. It counts as cell-based. The note with it: pre-treatment of cells; MEK substrate.
The subject of experiment [6] is MEK and ERK phosphorylation in HeLa and A431 cells. Put plainly: MEK and ERK phosphorylation western blot, HeLa and A431 cells. It is filed as cell-based. A general note: A western blot detects proteins with antibodies after separation by electrophoresis.
In experiment [7] the test system is c-RAF^Ser338 phosphorylation. Put plainly: c-RAF^Ser338 phosphorylation in synchronized HCT116 cells entering mitosis. It counts as cell-based, human. The note with it: HCT116, released from double thymidine block.
For experiment [8], the system named is PanIN lesions (K-RAS^G12D). Nature of the experiment: Pdx-cre:Kras^+/LSL G12D mouse model of pancreatic intraepithelial neoplasia. It is filed as in vivo. The note with it: 14 days.
A further experiment deals with recombinant Ral-GDS RBD (Homo sapiens, UniProt Q12967). Nature of the experiment: DSF and biotin-RGS pull-down, Ral-GDS RBD. It is filed as binding. The note with it: DSF and pull-down with biotin-RGS conjugate.
For experiment [9], the target named is PLK1 association with c-RAF^Ser338 (Homo sapiens, UniProt P04049). Put plainly: PLK1 immunoprecipitation, associated c-RAF^Ser338 in HCT116 cells. It is filed as cell-based. Particulars: HCT116, anti-PLK1 immunoprecipitation.
Another experiment relates to PLK1. Particulars: subsequent experiments by us and others; ref Steegmaier et al., 2007; cited from earlier work.
The target in the next experiment is three RAF proteins. Nature of the experiment: In vitro RAF kinase assays. It counts as biochemical.
The subject of experiment [10] is A549 (K-RAS^G12S) xenograft. Nature of the experiment: A549 xenograft tumor growth. Particulars: 100 mg/kg twice daily i.p., 16 days, nude mice.
The target of experiment [11] is GST-tagged B-RAF RBD (aa 151–230) (Homo sapiens, UniProt P15056). Nature of the experiment: Microscale thermophoresis.
Experiment [12] relates to MDS patients with monosomy 7 and trisomy 8. The note with it: phase III, MDS with monosomy 7 and trisomy 8; ref Garcia-Manero et al., 2016; cited from earlier work.
The target in experiment [13] is GST-tagged c-RAF RBD (aa 1–149) (Homo sapiens, UniProt P04049). Nature of the experiment: Microscale thermophoresis. On the technique in general: MST reads how a fluorescent partner responds to local heating, with and without ligand.
Experiment [14] deals with GTP-RAS and CRAF-RBD interaction (Homo sapiens, UniProt P04049). Nature of the experiment: In vitro association of GST-RBD with GTP-RAS from EGF-stimulated A431 lysates. It counts as biochemical. The note with it: GST-RBD pre-incubated with increasing concentrations.
A further experiment concerns mutant c-RAF RBDs. Put plainly: MST binding to mutant c-RAF RBDs. Particulars: V69A.
For experiment [15], the system named is HCT116 (K-RAS^G13D) xenograft. Put plainly: HCT116 xenograft tumor growth. Particulars: 100 mg/kg twice daily i.p., 16 days, nude mice.
The test system of experiment [16] is c-RAF^Ser338, MEK, ERK, and AKT phosphorylation. Put plainly: Western blot of xenograft tumor extracts. It counts as in vivo, mouse. Particulars: tumor extracts vs placebo.
Experiment [17] deals with HA-tagged mutant N-RAS G12D GTP-RAS in HeLa cells. Put plainly: Active RAS pull-down, HeLa cells expressing mutant N-RAS G12D. It counts as cell-based. Particulars: pre-incubation.
Experiment [18] concerns MEK and ERK activation in N-RAS (G12D)-expressing HeLa, HCT-116 and A549 cells. Nature of the experiment: MEK and ERK activation western blot, mutant RAS cells. It is filed as cell-based.

The structures appear in SMILES notation.

PLK1 association with c-RAF^Ser338, sequence (P04049 whole entry): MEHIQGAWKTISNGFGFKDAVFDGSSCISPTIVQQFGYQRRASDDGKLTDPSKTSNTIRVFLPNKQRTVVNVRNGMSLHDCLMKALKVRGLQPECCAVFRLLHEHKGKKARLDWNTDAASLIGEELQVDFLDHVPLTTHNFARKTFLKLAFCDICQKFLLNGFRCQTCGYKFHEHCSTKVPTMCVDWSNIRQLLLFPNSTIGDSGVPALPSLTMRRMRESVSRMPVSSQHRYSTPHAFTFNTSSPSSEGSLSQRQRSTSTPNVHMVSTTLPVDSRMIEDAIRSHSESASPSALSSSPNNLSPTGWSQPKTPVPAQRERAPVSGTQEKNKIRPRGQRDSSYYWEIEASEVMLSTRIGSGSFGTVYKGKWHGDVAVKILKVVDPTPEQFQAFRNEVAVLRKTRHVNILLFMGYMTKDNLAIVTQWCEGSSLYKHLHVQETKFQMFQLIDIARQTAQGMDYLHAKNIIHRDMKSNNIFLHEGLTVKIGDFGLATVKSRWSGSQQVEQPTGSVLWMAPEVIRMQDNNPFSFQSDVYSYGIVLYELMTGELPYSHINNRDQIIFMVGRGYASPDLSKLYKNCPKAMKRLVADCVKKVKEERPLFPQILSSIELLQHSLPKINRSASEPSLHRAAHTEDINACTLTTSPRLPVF
c-RAF/B-RAF heterodimer, sequence (P04049 whole entry): as above
c-RAF/B-RAF heterodimer, sequence (P15056 whole entry): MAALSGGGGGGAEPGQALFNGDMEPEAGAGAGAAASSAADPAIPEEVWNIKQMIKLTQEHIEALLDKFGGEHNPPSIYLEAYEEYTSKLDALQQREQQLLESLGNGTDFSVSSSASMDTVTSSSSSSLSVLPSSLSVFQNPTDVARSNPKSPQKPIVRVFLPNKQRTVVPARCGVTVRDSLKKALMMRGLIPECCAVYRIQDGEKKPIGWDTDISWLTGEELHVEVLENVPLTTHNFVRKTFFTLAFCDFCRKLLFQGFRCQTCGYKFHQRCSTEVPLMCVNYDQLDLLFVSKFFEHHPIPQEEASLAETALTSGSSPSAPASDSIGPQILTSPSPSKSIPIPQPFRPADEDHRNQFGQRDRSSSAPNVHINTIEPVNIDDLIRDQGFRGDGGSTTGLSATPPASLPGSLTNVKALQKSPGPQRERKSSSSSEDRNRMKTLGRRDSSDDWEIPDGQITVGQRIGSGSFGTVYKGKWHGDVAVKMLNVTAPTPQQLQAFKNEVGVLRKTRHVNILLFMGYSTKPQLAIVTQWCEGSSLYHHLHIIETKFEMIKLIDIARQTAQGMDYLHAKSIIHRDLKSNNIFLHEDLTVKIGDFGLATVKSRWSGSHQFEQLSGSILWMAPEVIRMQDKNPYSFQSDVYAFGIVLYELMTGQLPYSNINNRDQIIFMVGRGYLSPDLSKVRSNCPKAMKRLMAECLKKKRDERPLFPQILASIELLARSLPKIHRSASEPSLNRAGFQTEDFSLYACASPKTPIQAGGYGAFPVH
GST-RBD (AA 1–149) of c-RAF, sequence (P04049 1-149): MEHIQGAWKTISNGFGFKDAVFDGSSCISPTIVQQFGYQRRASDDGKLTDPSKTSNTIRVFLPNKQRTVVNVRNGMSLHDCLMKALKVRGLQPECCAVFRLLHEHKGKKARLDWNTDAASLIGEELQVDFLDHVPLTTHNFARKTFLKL
kinase domain (KD) of c-RAF (AA 306–648), sequence (P04049 306-648): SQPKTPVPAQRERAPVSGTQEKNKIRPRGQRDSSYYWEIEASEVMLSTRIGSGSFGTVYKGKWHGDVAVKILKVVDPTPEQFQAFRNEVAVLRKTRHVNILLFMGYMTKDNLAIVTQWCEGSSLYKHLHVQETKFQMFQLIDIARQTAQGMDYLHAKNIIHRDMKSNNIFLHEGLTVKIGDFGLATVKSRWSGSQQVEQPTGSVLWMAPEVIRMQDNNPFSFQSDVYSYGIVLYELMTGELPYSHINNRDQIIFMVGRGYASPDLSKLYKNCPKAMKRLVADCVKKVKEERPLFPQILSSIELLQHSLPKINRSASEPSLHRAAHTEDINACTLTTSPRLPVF
recombinant Ral-GDS RBD, sequence (Q12967 798-885 limits assumed): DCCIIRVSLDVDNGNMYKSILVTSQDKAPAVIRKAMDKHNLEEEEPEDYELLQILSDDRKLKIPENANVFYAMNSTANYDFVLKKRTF
GST-tagged c-RAF RBD (aa 1–149), sequence (P04049 1-149): as the sequence (P04049 1-149) above
GST-tagged B-RAF RBD (aa 151–230), sequence (P15056 151-230): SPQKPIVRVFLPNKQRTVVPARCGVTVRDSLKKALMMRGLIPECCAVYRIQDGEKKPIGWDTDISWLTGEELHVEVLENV
GTP-RAS and CRAF-RBD interaction, sequence (P04049 56-131 limits assumed): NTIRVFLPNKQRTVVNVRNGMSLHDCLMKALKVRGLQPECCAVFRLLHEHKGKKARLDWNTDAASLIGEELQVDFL

Regarding `CCCS(=O)(=O)Nc1ccc(F)c(C(=O)c2c[nH]c3ncc(-c4ccc(Cl)cc4)cc23)c1F` [PLX4032, vemurafenib, reference compound], the c-RAF/B-RAF heterodimer formation result at c-RAF/B-RAF heterodimer is recorded as “enhanced the association”. The “EGF-induced c-RAF^Ser338 phosphorylation” value in [1] is on record as “little or no effect”. In experiment [2], the “GTP-RAS pulled down by GST-RBD after EGF stimulation” value is “GTP-RAS could readily be pulled down”. Also, the “interaction with c-RAF kinase domain (thermal shift)” value in [3] was “strong thermal shift”. Also, the “interaction with c-RAF RBD (change in Tm)” value in [4] is reported as “not with the RBD”. In experiment [5], the “EGF-induced activation of RAF kinase activity” value is on record as “enhancement”. Besides, in experiment [6], the “phosphorylation status of MEK and ERK” value is recorded as “a small increase or no change”.
As usually defined, the Kd is the constant that tells how readily two partners part at equilibrium. For the compound `COc1cc(OC)c(/C=C/S(=O)(=O)Cc2ccc(OC)c(NCC(=O)O)c2)c(OC)c1` [RGS, rigosertib], the c-RAF/B-RAF heterodimer formation entry on c-RAF/B-RAF heterodimer is “nearly complete inhibition”. Besides, the “reduction of c-RAF^Ser338 phosphorylation” value in experiment [7] worked out at 90%. Also, the “EGF-induced c-RAF^Ser338 phosphorylation” value in [1] is recorded as “completely inhibited”. In experiment [2], the “GTP-RAS pulled down by GST-RBD after EGF stimulation” value was “very little or no GTP-RAS could be precipitated”. For the same compound, in experiment [8] (200 mg/kg twice daily i.p.), the “decrease in number of PanIN 1B, 2, and 3 grade tumors” value was “statistically significant”. In addition, in experiment [8] (200 mg/kg twice daily i.p.), the “number of pancreatic lesions, less than placebo-treated group” value is given as ~ 3 fold. Also, in [8] (200 mg/kg twice daily), the “cleaved caspase-3-positive cells in PanIN lesions, greater than control” value is about 4 fold. Moreover, the “phosphorylated ERK and AKT^Ser473 in PanINs” value in [8] (immunohistochemistry, 200 mg/kg twice daily) was “markedly decreased levels”. For the same compound, the “interaction with c-RAF kinase domain (thermal shift)” value in experiment [3] is given as “did not interact”. In addition, at recombinant Ral-GDS RBD, the “binding to Ral-GDS RBD” value is given as “binds to recombinant Ral-GDS RBD, in a concentration-dependent manner”. In addition, the “association of PLK1 with c-RAF^Ser338” value in experiment [9] is given as “little or no association”. For the same compound, in experiment [4], the “interaction with c-RAF RBD (change in Tm)” value is recorded as “bound to RGS”. Besides, the PLK1 kinase activity result in the experiment with PLK1 is listed as “does not directly inhibit”. Also, in experiment [5], the “EGF-induced activation of RAF kinase activity” value is on record as “inhibits EGF-induced activation of RAF kinase activity”. For the same compound, the “kinase activity of the three RAF proteins in in vitro assays” value at three RAF proteins is reported as “does not inhibit”. For the same compound, the tumor growth entry in experiment [10] and in experiment [15] was “dramatically decreased tumor growth” each time. Also, the “phosphorylation status of MEK and ERK” value in experiment [6] is “reduction in MEK and ERK phosphorylation”. The figures for the dissociation constant (Kd) in [11] and in experiment [13] were 0.71 nM and 0.18 nM, respectively. Besides, the “hazard ratio for survival” value in experiment [12] is reported as 0.25–0.30. For the same compound, the “association of GST-RBD with activated RAS” value in experiment [14] was “inhibition of its association with activated RAS in a concentration-dependent manner”. The “binding affinity to c-RAF RBD mutants with reduced RAS binding” value in the experiment on mutant c-RAF RBDs (mutants K65A, V70A, and V88A, increased Kd values in MST) is on record as “reduced binding affinities”. The “binding to c-RAF RBD mutants that abolished RAS binding” value with mutant c-RAF RBDs (mutations T57A, R67A, L62A, V69G, and T68A) is listed as “disrupted binding”. Besides, the “c-RAF^Ser338, MEK, ERK, and AKT phosphorylation in tumors” value in [16] is recorded as “dramatically reduced”. Further, the “levels of mutant GTP-RAS bound to GST-RBD” value in experiment [17] is “no effect on the levels of GTP-RAS”. Further, in experiment [18], the “MEK and ERK activation” value is “inhibits MEK and ERK activation equally well”.
In the case of `COC(=O)Nc1nc2ccc(C(=O)c3cccs3)cc2[nH]1` [nocadazole, nocodazole, reference compound], in [9], the “association of PLK1 with c-RAF^Ser338” value is recorded as “strong association”.
